Calls of active or inactive are those of the source. The calls are words filed in the database; no cut-off is given here.
Assays:
[1] = target: Vasopressin V1a receptor (Homo sapiens) (UniProt P37288); experiment: Antagonist activity at human Gq5s-coupled V1a receptor expressed in CHO cells assessed as inhibition of vasopressin-induced calcium flux preincubated for 20 mins followed by vasopressin addition and measured for 5 mins by fluo-4-AM dye based FLIPR assay; type: functional, cell-based
[2] = Volume of distribution in cynomolgus monkey; type: ADME, Macaca fascicularis; conditions: in vivo
[3] = tested on: Rattus norvegicus; experiment: Neuroprotective activity in stress hyperresponsive Fischer F344 rat assessed as increase in perfusion in amygdala at 30 mg/kg, iv administered as bolus dose via catheter by ASL-based MRI analysis; type: functional, organism-based
[4] = tested on: Rattus norvegicus; experiment: Neuroprotective activity in stress hyperresponsive Fischer F344 rat assessed as increase in perfusion in hypothalamus at 30 mg/kg, iv administered as bolus dose via catheter by ASL-based MRI analysis; type: functional, organism-based
[5] = Oral bioavailability in cynomolgus monkey; type: ADME, organism-based, Macaca fascicularis; conditions: in vivo
[6] = Selectivity ratio of Kb for antagonist activity at human […] receptor to Kb for antagonist activity at human Gq5s-coupled V1a receptor expressed in CHO cells
[7] = tested on: Rattus norvegicus; experiment: Neuroprotective activity in stress hyperresponsive Fischer F344 rat assessed as change in perfusion in primary motor cortex at 30 mg/kg, iv administered as bolus dose via catheter by ASL-based MRI analysis relative to control; type: functional
[8] = target: MDR1 (ABCB1, P-glycoprotein) (Homo sapiens, UniProt P08183); experiment: Substrate activity at human MDR1 expressed in LLC-PK1 cells assessed as efflux ratio of permeability at 1 uM measured after 3.5 hrs by lucifer yellow based scintillation counting or HPLC method; type: ADME, cell-based
[9] = tested on: Rattus norvegicus; experiment: Neuroprotective activity in stress hyperresponsive Fischer F344 rat assessed as increase in perfusion in substantia nigra at 30 mg/kg, iv administered as bolus dose via catheter by ASL-based MRI analysis; type: functional, organism-based
[10] = Volume of distribution in dog; type: ADME, Canis lupus familiaris; conditions: in vivo
[11] = tested on: Rattus norvegicus; experiment: Neuroprotective activity in iv dosed stress hyperresponsive Fischer F344 rat assessed as improvement in neural activity pattern administered as bolus dose via catheter by ASL-based MRI analysis; type: functional, organism-based
[12] = target: 5-hydroxytryptamine receptor 2B (Homo sapiens) (UniProt P41595); experiment: Antagonist activity at recombinant human 5HT2B receptor expressed in CHOK1 cells assessed as inhibition of serotonin-induced inositol phosphate production measured after 30 mins by HTRF assay; type: functional, cell-based
[13] = tested on: Rattus norvegicus; experiment: Neuroprotective activity in stress hyperresponsive Fischer F344 rat assessed as increase in perfusion in raphe nuclei at 30 mg/kg, iv administered as bolus dose via catheter by ASL-based MRI analysis; type: functional, organism-based
[14] = Protein binding in human plasma assessed as unbound fraction; type: ADME, cell-free
[15] = tested on: Rattus norvegicus; experiment: In vivo receptor occupancy at V1a receptor in stress hyperresponsive Fischer F344 rat at 30 mg/kg, iv administered as bolus dose via catheter; type: functional
[16] = tested on: Rattus norvegicus; experiment: Neuroprotective activity in stress hyperresponsive Fischer F344 rat assessed as change in perfusion in visual cortex at 30 mg/kg, iv administered as bolus dose via catheter by ASL-based MRI analysis relative to control; type: functional
[17] = tested on: Rattus norvegicus; experiment: Neuroprotective activity in stress hyperresponsive Fischer F344 rat assessed as increase in perfusion in entorhinal piriform cortex at 30 mg/kg, iv administered as bolus dose via catheter by ASL-based MRI analysis; type: functional, organism-based
[18] = tested on: Rattus norvegicus; experiment: Neuroprotective activity in stress hyperresponsive Fischer F344 rat assessed as change in perfusion in caudate putamen at 30 mg/kg, iv administered as bolus dose via catheter by ASL-based MRI analysis; type: functional, organism-based
[19] = Oral bioavailability in rat; type: ADME, organism-based; conditions: in vivo
[20] = tested on: Rattus norvegicus; experiment: Neuroprotective activity in stress hyperresponsive Fischer F344 rat assessed as change in perfusion in dorsal hippocampus at 30 mg/kg, iv administered as bolus dose via catheter by ASL-based MRI analysis; type: functional, organism-based
[21] = Selectivity ratio of Kb for antagonist activity at human V2 receptor to Kb for antagonist activity at human Gq5s-coupled V1a receptor expressed in CHO cells
[22] = tested on: Rattus norvegicus; experiment: Neuroprotective activity in stress hyperresponsive Fischer F344 rat assessed as change in perfusion in superior colliculi at 30 mg/kg, iv administered as bolus dose via catheter by ASL-based MRI analysis; type: functional, organism-based
[23] = Volume of distribution in rat; type: ADME; conditions: in vivo
[24] = species on record: Homo sapiens; experiment: Selectivity ratio of Kb for antagonist activity at recombinant human 5HT2B receptor expressed in CHOK1 cells to Kb for antagonist activity at human Gq5s-coupled V1a receptor expressed in CHO cells; type: cell-based
[25] = tested on: Rattus norvegicus; experiment: Neuroprotective activity in stress hyperresponsive Fischer F344 rat assessed as change in perfusion in medial prefrontal at 30 mg/kg, iv administered as bolus dose via catheter by ASL-based MRI analysis relative to control; type: functional
[26] = tested on: Rattus norvegicus; experiment: Neuroprotective activity in stress hyperresponsive Fischer F344 rat assessed as change in perfusion in inferior colliculi at 30 mg/kg, iv administered as bolus dose via catheter by ASL-based MRI analysis; type: functional, organism-based
[27] = tested on: Rattus norvegicus; experiment: Neuroprotective activity in stress hyperresponsive Fischer F344 rat assessed as increase in perfusion in ventral tegmental area at 30 mg/kg, iv administered as bolus dose via catheter by ASL-based MRI analysis; type: functional, organism-based

Chain of Vasopressin V1a receptor (Homo sapiens) (P37288 whole entry, looked up): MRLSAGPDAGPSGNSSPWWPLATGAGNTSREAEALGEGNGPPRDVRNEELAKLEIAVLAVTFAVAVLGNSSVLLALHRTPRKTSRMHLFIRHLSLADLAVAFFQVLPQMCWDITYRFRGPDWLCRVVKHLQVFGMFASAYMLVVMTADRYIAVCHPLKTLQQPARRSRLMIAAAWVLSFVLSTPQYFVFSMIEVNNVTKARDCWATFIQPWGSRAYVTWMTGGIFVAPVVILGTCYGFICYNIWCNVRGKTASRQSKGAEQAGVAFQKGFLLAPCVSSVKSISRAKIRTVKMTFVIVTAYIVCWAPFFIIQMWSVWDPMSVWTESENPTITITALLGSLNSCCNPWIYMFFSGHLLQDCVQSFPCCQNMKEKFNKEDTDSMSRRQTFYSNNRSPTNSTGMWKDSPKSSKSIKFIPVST
Chain of MDR1 (ABCB1, P-glycoprotein) (P08183 whole entry, the tested form may be a part): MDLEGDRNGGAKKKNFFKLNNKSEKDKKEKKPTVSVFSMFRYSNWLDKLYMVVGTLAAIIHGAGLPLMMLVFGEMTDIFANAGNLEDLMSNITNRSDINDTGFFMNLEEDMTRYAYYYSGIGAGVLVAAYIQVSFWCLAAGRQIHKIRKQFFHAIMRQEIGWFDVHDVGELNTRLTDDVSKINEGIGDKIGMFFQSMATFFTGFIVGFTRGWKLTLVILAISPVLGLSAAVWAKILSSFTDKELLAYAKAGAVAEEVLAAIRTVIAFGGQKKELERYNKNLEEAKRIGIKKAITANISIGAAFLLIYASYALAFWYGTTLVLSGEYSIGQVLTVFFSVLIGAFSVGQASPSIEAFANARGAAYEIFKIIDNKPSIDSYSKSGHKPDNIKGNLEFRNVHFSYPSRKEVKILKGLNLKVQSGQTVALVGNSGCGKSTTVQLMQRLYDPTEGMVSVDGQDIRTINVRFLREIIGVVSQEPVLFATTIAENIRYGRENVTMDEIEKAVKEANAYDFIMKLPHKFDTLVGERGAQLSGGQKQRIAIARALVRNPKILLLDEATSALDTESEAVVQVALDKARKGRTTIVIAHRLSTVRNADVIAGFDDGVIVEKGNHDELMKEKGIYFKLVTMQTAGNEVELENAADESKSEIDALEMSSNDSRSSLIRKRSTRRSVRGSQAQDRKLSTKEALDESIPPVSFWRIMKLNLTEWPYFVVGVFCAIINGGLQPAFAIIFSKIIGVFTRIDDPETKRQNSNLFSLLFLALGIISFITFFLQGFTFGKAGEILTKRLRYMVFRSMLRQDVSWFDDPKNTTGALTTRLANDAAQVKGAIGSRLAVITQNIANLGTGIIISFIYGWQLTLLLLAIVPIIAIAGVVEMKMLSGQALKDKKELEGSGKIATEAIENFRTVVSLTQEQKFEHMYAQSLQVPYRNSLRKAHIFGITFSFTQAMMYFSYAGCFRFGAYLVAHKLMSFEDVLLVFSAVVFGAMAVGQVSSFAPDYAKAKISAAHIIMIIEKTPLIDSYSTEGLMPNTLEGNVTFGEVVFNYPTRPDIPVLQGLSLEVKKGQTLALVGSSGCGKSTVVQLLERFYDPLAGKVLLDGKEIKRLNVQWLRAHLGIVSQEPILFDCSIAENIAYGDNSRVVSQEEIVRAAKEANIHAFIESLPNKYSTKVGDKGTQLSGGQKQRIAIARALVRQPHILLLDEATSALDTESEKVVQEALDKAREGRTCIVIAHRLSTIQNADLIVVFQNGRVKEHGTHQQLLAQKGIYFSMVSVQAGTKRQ
Chain of 5-hydroxytryptamine receptor 2B (Homo sapiens) (P41595 whole entry, the tested form may be a part): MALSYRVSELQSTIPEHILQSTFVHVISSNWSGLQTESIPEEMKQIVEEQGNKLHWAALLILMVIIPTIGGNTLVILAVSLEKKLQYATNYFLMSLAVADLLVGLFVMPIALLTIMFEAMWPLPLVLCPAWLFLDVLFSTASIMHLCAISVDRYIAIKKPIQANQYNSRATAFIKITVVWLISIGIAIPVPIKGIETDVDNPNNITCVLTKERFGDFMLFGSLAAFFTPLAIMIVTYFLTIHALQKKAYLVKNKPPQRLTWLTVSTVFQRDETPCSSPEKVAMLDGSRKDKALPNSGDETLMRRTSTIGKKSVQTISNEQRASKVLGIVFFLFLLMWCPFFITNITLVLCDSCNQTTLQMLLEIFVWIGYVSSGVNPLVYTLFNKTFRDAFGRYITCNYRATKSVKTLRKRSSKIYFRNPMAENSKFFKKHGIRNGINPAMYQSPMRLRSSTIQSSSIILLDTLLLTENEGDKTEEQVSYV

**Q.** Which Kb [1] does the source give for `CN1Cc2cc(Cl)ccc2-n2c(nnc2[C@H]2CC[C@H](Oc3ccccn3)CC2)C1` [BALOVAPTAN] here?
**A.** 0.39 nM

**Q.** And the Vd [2]?
**A.** 0.5 to 1.3 L/kg

**Q.** What about the Activity [3] of the same molecule?
**A.** Active

**Q.** And the Activity [4]?
**A.** Active

**Q.** What about the bioavailability [5] of the same molecule?
**A.** 130%

**Q.** What about the Selectivity ratio [6] of the same molecule?
**A.** 2735

**Q.** What about the Activity [7] of the same molecule?
**A.** -20%

**Q.** What about the efflux ratio at 3.5 h, 1 µM [8] of the same molecule?
**A.** < 2

**Q.** What about the Activity [9] of the same molecule?
**A.** Active

**Q.** And the Vd [10]?
**A.** 0.5 to 1.3 L/kg

**Q.** And the Activity [11]?
**A.** Dose-dependent effect

**Q.** And the Kb [12]?
**A.** 366 nM

**Q.** And the Activity [13]?
**A.** Active

**Q.** What about the fraction unbound [14] of the same molecule?
**A.** 0.13

**Q.** What about the Occ [15] of the same molecule?
**A.** >90%

**Q.** And the Activity [16]?
**A.** -20%

**Q.** And the Activity [17]?
**A.** Active

**Q.** What about the Activity [18] of the same molecule?
**A.** Active

**Q.** What about the bioavailability [19] of the same molecule?
**A.** 40%

**Q.** And the Activity [20]?
**A.** Active

**Q.** What about the Selectivity ratio [21] of the same molecule?
**A.** 3888

**Q.** What about the Activity [22] of the same molecule?
**A.** Active

**Q.** And the Vd [23]?
**A.** 0.5 to 1.3 L/kg

**Q.** And the Selectivity ratio [24]?
**A.** 938

**Q.** What about the Activity [25] of the same molecule?
**A.** -20%

**Q.** What about the Activity [26] of the same molecule?
**A.** Active

**Q.** And the Activity [27]?
**A.** Active

From ChEMBL document CHEMBL4354844, “Discovery of Balovaptan, a Vasopressin 1a Receptor Antagonist for the Treatment of Autism Spectrum Disorder” (J Med Chem, 2020)
